From patent US5989846A, “Assays to identify inducers of plant defense resistance” (Rutgers, The State University of New Jersey, priority 1995, dated 1999)

Legend:
catalase = test: Catalase activity of crude extracts; format: biochemical
Excerpt: In the presence of SA, the catalase activity of the highly purified SABP was inhibited by 80% (Table 6). A similar level of inhibition of catalase activity by SA (^- 70%) was also observed with crude extracts; inhibition appeared to be reversible since the catalase activity could be largely recovered by extensive dialysis. To assess the functional relevance of catalase inhibition by SA, several SA analogues, with or without biological activity in inducing plant PR genes and disease resistance, were compared for their ability to inhibit the catalase activity of SABP (Table 6).

[1] = biological target: T1, catalase activity of SABP (Nicotiana tabacum, UniProt P49319); test: Catalase activity of highly purified SABP (luminol method); format: biochemical, tobacco; settings: 0.05 h; 1 mM SA or analogue, 1 mM H2O2, 500 ng highly purified SABP
T1 sequence (P49319 1-492): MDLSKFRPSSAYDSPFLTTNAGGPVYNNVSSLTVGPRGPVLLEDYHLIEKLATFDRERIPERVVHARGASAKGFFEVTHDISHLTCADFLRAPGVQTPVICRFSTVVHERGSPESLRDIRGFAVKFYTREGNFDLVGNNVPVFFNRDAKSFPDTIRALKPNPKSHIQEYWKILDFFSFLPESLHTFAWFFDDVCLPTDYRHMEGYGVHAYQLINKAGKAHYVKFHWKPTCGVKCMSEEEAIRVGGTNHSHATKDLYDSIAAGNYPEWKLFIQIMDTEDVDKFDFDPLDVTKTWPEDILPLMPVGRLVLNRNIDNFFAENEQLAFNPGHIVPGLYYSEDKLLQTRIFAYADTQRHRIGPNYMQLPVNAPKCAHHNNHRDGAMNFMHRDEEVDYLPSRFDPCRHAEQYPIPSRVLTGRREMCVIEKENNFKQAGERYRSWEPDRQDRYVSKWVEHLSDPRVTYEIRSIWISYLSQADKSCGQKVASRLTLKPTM
Outline: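 H2O2 remaining was sampled every 30 s from purified SABP reactions, with or without SA or analogues. Measured by luminol chemiluminescence triggered by 0.5 mM K3Fe(CN)6 in 0.2N NH4OH, pH 9.5, and quantified against an H2O2 standard curve; first-order rate constants calculated.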

horseradish peroxidase = biological target: T2, horseradish peroxidase (Armoracia rusticana, UniProt P00433); test: Horseradish peroxidase activity; format: biochemical
T2 construct: purchased Sigma
T2 sequence (P00433 31-353): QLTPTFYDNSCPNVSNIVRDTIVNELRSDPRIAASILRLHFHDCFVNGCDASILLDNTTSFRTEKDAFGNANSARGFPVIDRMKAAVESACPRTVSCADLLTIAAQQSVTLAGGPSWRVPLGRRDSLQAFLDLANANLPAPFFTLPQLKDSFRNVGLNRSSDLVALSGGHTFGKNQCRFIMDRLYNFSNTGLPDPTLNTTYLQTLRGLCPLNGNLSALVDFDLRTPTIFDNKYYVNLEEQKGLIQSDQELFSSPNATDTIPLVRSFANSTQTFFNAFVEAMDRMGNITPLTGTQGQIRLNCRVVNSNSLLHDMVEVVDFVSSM
Procedure: Horseradish peroxidase (1 mg; obtained from Sigma) was dissolved in 1.5 ml 200 mM potassium phosphate, pH 6.2, containing 150 mM NaCl. Following a 15 minute incubation at room temperature, the enzyme solution was centrifuged (10,000 g, 10 minutes). After buffer exchange (PD-10, equilibrated with 25 mM potassium phosphate, pH 6.2), the protein concentration was adjusted to 0.5 mg/ml.
Guaiacol peroxidase activity was determined by the method of Chance and Maehly (Methods Enzymol. 2: 764 (1955)) using guaiacol as the substrate.
The formation of tetraguaiacol was monitored at 470 nm. The reaction mixture contained 0.25% guaiacol and 100 mM hydrogen peroxide in 20 mM potassium phosphate, pH 6.2. The amount of protein per 1 ml assay was […]. The reaction was measured for five minutes. The assay for horseradish peroxidase was identical, except that only 0.2-0.5 μg protein was used.

[2] = tested on: salicylic acid binding protein; test: Competitive [14C] salicylic acid binding assay (spin-column); parameters: species or system tobacco; settings: [14C] salicylic acid 20 μM
Outline: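 Plant-fractionated binding protein incubated 2 hr at 4 °C with 5 μM-20 μM [14C]salicylic acid, with analogues added to the mixture as competitors. Bound ligand separated from free by spin-column gel exclusion (6 kDa limit) and counted; binding activity compared with analogue-free controls.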

SMILES: O=C(O)c1ccccc1O [salicylic acid, 2-hydroxybenzoic acid]
- Inhibition of catalase activity (catalase; crude extracts): ~70%
- Reversibility of catalase inhibition (catalase; extensive dialysis): reversible
- inhibition at 1000 µM [1]: 80%
- Activity (horseradish peroxidase; HRP, 100 μM compound): 251 ± 11 μmols of oxidized substrate mi
- inhibition at 100 µM (horseradish peroxidase; HRP, 100 μM compound): -4%
- Activity (horseradish peroxidase; HRP, 1,000 μM compound): 237 ± 21 μmols of oxidized substrate mi
- inhibition at 1000 µM (horseradish peroxidase; HRP, 1,000 μM compound): 1%
- Inhibition (%) 2× ([2]; 40 μM (2×) unlabeled competitor): 50%
- Inhibition (%) 10× ([2]; 200 μM (10×) unlabeled competitor): 91%
